Results: ChEMBL document CHEMBL1201862, “PubChem BioAssay data set” (2004)
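Interpolation was linear, between the two tested concentrations surrounding the appropriate level; five concentrations were tested over 48 hours in 96-well plates. GI50: concentration for 50% inhibition of growth.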 Active and inactive are the calls of the source. Cut-off read from the data, not from the text of the source: active = GI50 up to about 1.1 µM and inactive = higher.

Tests used:
Test in all cases: NCI anticancer screen, dose series, 48 h
[1] = tested on: DU-145
[2] = tested on: K562
[3] = tested on: KM12
[4] = tested on: MDA-MB-435
[5] = tested on: NCI-H226
[6] = tested on: NCI-H23
[7] = tested on: NCI/ADR-RES
[8] = tested on: SF-295
[9] = tested on: SK-MEL-5
[10] = tested on: SK-OV-3
[11] = tested on: SNB-19
[12] = tested on: SW-620
[13] = tested on: T47D
[14] = tested on: TK-10
[15] = tested on: UO-31
[16] = tested on: EKVX
[17] = tested on: SR
[18] = tested on: MDA-MB-231

Measured: GI50

Cc1c(Cl)c(S(N)(=O)=O)cc(S(N)(=O)=O)c1NC(=O)c1ccc(Cl)cc1
inactive: [1] > 100 µM | [2] > 100 µM | [3] > 100 µM | [4] > 100 µM | [5] > 100 µM | [6] > 100 µM | [7] > 100 µM | [8] > 100 µM | [9] > 100 µM | [10] > 100 µM | [11] > 100 µM | [12] > 100 µM | [13] > 100 µM | [14] > 100 µM | [15] > 100 µM

C1CSCCSCCCSCCSCCCSCCSCCCSCCSC1
inactive: [1] > 100 µM | [16] > 100 µM | [2] > 100 µM | [3] > 100 µM | [4] > 100 µM | [5] > 100 µM | [6] > 100 µM | [7] > 100 µM | [8] > 100 µM | [9] > 100 µM | [10] > 100 µM | [11] > 100 µM | [17] > 100 µM | [12] > 100 µM | [13] 57 µM | [14] > 100 µM | [15] > 100 µM

CC1CC/C(=C\c2ccc(F)cc2)C2=C1C(c1ccc(F)cc1)n1c(s/c(=C\c3ccc(Cl)cc3)c1=O)=N2 (stereo not drawn)
inactive: [1] > 100 µM | [16] > 100 µM | [2] > 100 µM | [3] > 100 µM | [18] > 100 µM | [4] > 100 µM | [9] > 100 µM | [10] > 100 µM | [11] > 100 µM | [12] > 100 µM | [14] > 100 µM

COc1ccc(NC(=O)C(C#N)=C(SC)SC)cc1
inactive: [1] > 100 µM | [16] > 100 µM | [2] > 100 µM | [18] > 100 µM | [4] > 100 µM | [5] > 100 µM | [6] > 100 µM | [8] > 100 µM | [9] > 100 µM | [10] > 100 µM | [11] > 100 µM | [17] > 100 µM | [12] > 100 µM | [13] > 100 µM | [14] > 100 µM | [15] 60.3 µM

CC1=C(C(=O)NC2CCCCC2)CC(C(=O)NC2CCCCC2)=C(C)N1
inactive: [1] > 100 µM | [16] > 100 µM | [2] 57.4 µM | [3] > 100 µM | [18] > 100 µM | [4] > 100 µM | [6] > 100 µM | [8] > 100 µM | [9] > 100 µM | [10] > 100 µM | [11] > 100 µM | [17] > 100 µM | [12] > 100 µM | [13] 58.6 µM | [14] 39.2 µM | [15] > 100 µM

Oc1ccc2ccccc2c1OCc1nnc(CCCCCCCCc2nnc(COc3c(O)ccc4ccccc34)o2)o1
inactive: [1] > 100 µM | [16] > 100 µM | [2] > 100 µM | [3] 25.2 µM | [18] 34.8 µM | [4] > 100 µM | [5] > 100 µM | [6] > 100 µM | [7] > 100 µM | [8] > 100 µM | [9] > 100 µM | [10] > 100 µM | [11] > 100 µM | [12] > 100 µM | [14] > 100 µM | [15] > 100 µM

Cc1ccc2c(c1C)C(=O)/C(=C/c1ccccc1C(=O)O)C2
inactive: [1] > 100 µM | [16] > 100 µM | [2] > 100 µM | [3] > 100 µM | [4] > 100 µM | [5] > 100 µM | [6] > 100 µM | [7] > 100 µM | [8] > 100 µM | [9] 42.3 µM | [11] > 100 µM | [17] > 100 µM | [12] > 100 µM | [13] > 100 µM | [14] > 100 µM | [15] > 100 µM

CCN1CCCc2cc3c(C(F)(F)F)cc(=O)oc3cc21
inactive: [1] > 100 µM | [16] 8.11 µM | [2] 63.8 µM | [3] > 100 µM | [18] 53.2 µM | [4] 73.1 µM | [5] 64.6 µM | [6] 57.4 µM | [8] 63.4 µM | [9] 28.6 µM | [10] > 100 µM | [11] > 100 µM | [12] > 100 µM | [13] 65.5 µM | [14] > 100 µM | [15] > 100 µM

COc1cccc(C2c3cc4c(cc3OC(NNS(=O)(=O)c3ccc(C)cc3)C2C)OCO4)c1OC (stereo not drawn)
inactive: [1] 2.29 µM | [16] 3.18 µM | [2] 2.12 µM | [3] 3.3 µM | [18] 5.47 µM | [4] 3.57 µM | [5] 2.56 µM | [6] 4.06 µM | [8] 2.9 µM | [9] 2.83 µM | [10] 2.59 µM | [11] 3.59 µM | [17] 1.36 µM | [12] 3.08 µM | [13] 3.44 µM | [14] 4.46 µM | [15] 2.63 µM

CC#CCCCC1(C)CCNC1=S (stereo not drawn)
inactive: [1] > 10 µM | [16] > 10 µM | [2] > 10 µM | [3] > 10 µM | [4] > 10 µM | [5] > 10 µM | [6] > 10 µM | [8] > 10 µM | [10] > 10 µM | [11] > 10 µM | [17] > 10 µM | [12] > 10 µM | [14] > 10 µM | [15] > 10 µM

c1ccc2[nH]c3[nH]c4[nH]c5ccccc5[nH]c4[nH]c3[nH]c2c1
inactive: [1] > 100 µM | [16] > 100 µM | [2] > 100 µM | [3] > 100 µM | [18] > 100 µM | [4] > 100 µM | [5] > 100 µM | [6] > 100 µM | [7] > 100 µM | [8] 66.2 µM | [9] > 100 µM | [10] > 100 µM | [11] > 100 µM | [17] > 100 µM | [12] > 100 µM | [14] > 100 µM | [15] > 100 µM

CC(=O)C(=CNc1c(C)n(C)n(-c2ccccc2)c1=O)C(C)=O
inactive: [1] > 100 µM | [16] > 100 µM | [2] > 100 µM | [3] > 100 µM | [18] > 100 µM | [4] > 100 µM | [5] > 100 µM | [6] > 100 µM | [7] > 100 µM | [8] > 100 µM | [9] > 100 µM | [10] > 100 µM | [11] > 100 µM | [17] > 100 µM | [12] > 100 µM | [14] > 100 µM | [15] > 100 µM
